Measurements from ChEMBL document CHEMBL1201862, “PubChem BioAssay data set” (2004).
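1) Cells in 96-well plates. 2) Compound, 48 h, 5 concentrations. 3) Linear interpolation between surrounding doses. 4) Unreached endpoint = highest concentration. GI50 is the concentration that inhibits growth by half.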 The source made the active and inactive calls. Rule as the data show it: active = GI50 up to about 1.1 µM and inactive = higher.

Tests used:
Test in all cases: NCI tumour cell line growth inhibition, 48 h
[1] = tested on: HCC 2998
[2] = tested on: HCT-15
[3] = tested on: Hs-578T
[4] = tested on: MCF7
[5] = tested on: MDA-MB-231
[6] = tested on: MDA-MB-435
[7] = tested on: NCI-H226
[8] = tested on: NCI-H460
[9] = tested on: NCI/ADR-RES
[10] = tested on: OVCAR-4
[11] = tested on: OVCAR-5
[12] = tested on: RPMI-8226
[13] = tested on: SF-295
[14] = tested on: SK-MEL-28
[15] = tested on: SK-MEL-2
[16] = tested on: SN12C
[17] = tested on: SNB-19
[18] = tested on: SW-620
[19] = tested on: U-251
[20] = tested on: UACC-62

With `Cc1c(F)c(N)c2c(=O)cc(-c3ccc(NC(=O)CN(C)C)c(F)c3)oc2c1F` the GI50 [1] was 21.5 µM (inactive), the GI50 [2] was 61.8 µM and the GI50 [3] was > 100 µM (inactive). The GI50 [4] was 7.29 µM (inactive), the GI50 [5] was 27.8 µM (inactive) and the GI50 [6] was 48.2 µM (inactive). For the same compound, the GI50 [7] was 11 µM (inactive), the GI50 [8] was 24.2 µM (inactive) and the GI50 [9] was 68.7 µM (inactive). The GI50 [10] was 23.6 µM (inactive), the GI50 [11] was 57 µM (inactive) and the GI50 [12] was 23.7 µM (inactive). For the same compound, the GI50 [13] was 68.1 µM (inactive), the GI50 [14] was 47.9 µM (inactive) and the GI50 [15] was 60.7 µM (inactive). For the same compound, the GI50 [16] was > 100 µM (inactive), the GI50 [17] was 54.1 µM (inactive) and the GI50 [18] was 18.3 µM (inactive). The GI50 [19] was 24.8 µM (inactive) and the GI50 [20] was 26.4 µM (inactive).
